From article PMC4867306 (European journal of medicinal chemistry, 2016)
Entries after “also recorded” stand apart in the source; their conditions may differ. Like-named read-outs stand apart in the source and are kept apart here.

Experiments:
[1] = target: T1, LAP (M17 leucine aminopeptidase) (Sus scrofa, UniProt P28839); conditions: originally measured activity; NI = no inhibition up to 0.8 mM inhibitor concentration; cited from earlier work
T1 sequence (P28839 33-519 limits assumed): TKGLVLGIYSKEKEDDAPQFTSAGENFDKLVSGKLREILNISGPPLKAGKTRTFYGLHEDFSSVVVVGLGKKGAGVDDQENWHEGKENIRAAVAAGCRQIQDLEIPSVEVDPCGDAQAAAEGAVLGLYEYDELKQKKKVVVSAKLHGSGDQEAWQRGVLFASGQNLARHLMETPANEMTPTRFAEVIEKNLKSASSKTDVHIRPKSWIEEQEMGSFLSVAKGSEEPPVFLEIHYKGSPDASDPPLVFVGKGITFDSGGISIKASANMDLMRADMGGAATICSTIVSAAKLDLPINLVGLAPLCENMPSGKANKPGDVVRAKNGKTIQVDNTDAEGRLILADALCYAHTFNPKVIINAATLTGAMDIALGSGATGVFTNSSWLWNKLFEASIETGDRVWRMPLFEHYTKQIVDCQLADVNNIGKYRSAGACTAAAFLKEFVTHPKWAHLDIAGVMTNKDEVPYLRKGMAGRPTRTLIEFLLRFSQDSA

[2] = target: T1, LAP (M17 leucine aminopeptidase); assay: Inhibition of porcine kidney leucine aminopeptidase; format: biochemical
[3] = target: T2, NmAPN (M1 alanine aminopeptidase from Neisseria meningitidis) (Neisseria meningitidis, UniProt Q9JYV4)
T2 sequence (Q9JYV4 1-867): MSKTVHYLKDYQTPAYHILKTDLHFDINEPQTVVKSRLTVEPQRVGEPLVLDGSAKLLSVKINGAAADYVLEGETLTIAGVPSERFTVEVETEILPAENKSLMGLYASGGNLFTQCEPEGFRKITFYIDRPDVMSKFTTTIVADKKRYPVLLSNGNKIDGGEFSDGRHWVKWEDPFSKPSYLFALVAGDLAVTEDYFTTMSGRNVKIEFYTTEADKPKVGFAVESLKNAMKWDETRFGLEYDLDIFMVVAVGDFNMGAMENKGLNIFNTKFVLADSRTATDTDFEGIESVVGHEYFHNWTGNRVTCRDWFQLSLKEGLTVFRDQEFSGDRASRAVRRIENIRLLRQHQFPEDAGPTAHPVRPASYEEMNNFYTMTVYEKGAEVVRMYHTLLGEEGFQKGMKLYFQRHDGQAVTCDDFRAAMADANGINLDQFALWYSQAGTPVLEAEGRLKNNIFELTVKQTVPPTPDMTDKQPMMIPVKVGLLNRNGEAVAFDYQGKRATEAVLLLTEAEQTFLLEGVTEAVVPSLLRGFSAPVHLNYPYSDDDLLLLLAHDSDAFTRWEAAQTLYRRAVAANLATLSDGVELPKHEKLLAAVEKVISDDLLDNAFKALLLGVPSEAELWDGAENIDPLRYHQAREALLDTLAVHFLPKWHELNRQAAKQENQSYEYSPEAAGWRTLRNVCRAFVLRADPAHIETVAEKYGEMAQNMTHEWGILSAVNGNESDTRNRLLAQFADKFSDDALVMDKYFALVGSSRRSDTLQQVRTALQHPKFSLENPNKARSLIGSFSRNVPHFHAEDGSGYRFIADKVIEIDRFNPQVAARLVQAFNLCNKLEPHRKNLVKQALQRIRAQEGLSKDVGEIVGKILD

[4] = target: T2, NmAPN (M1 alanine aminopeptidase from Neisseria meningitidis); conditions: read-out: Ki NmAPN; cited from earlier work

SMILES: NC(CNC1CCCCC1)P(=O)(O)O (centres unmarked) [1h, N-cyclohexyl-1,2-diaminoethylphosphonic acid]
- Ki LAP [1]: does not influence the LAP activity at all; also recorded: inactive; also recorded: do not inhibit LAP at all

SMILES: NC(CN1CCOCC1)P(=O)(O)O (centres unmarked) [1w]
- Ki ([2]; read-out: Ki LAP, NI = no inhibition up to 0.8 mM inhibitor concentration): > 800000 nM

SMILES: COc1ccc(CNCC(N)P(=O)(O)O)cc1 (centres unmarked) [1s]
- improvement of affinity compared with non-modified analogue 1n [3]: 3-to-4 fold

SMILES: CCCNCC(N)P(=O)(O)O (centres unmarked) [1c]
- Ki LAP [1]: inactive; also recorded: do not inhibit LAP at all

SMILES: NC(CCc1ccccc1)P(=O)(O)CC(Cc1ccccc1)C(=O)O (centres unmarked) [phosphinic analogue of hPhePhe]
- Ki [4]: 302 nM

SMILES: Nc1ccc(CNCC(N)P(=O)(O)O)cc1 (centres unmarked) [1r]
- improvement of affinity compared with non-modified analogue 1n [3]: 3-to-4 fold

SMILES: NC(CNCC1CCCO1)P(=O)(O)O (centres unmarked) [1k]
- Ki [2]: 2500 to 7000 nM

SMILES: CC(C)CNCC(N)P(=O)(O)O (centres unmarked) [1d]
- Ki LAP [1]: inactive; also recorded: do not inhibit LAP at all
